pIC50: −log10 of the molar value. Like-named read-outs stand apart in the source and are kept apart here.
Columns and labels:
[1] = tested on: SARS-COV-2; assay: microbe, parasite or virus in culture; assay type: cell-based; parameters: SI (Selectivity Index, CC50/IC50): unit not given here; details: for SI (Selectivity Index, CC50/IC50): SARS-COV-2, values >50 assumed to be 50; for pIC50: read-out: SARS-COV-2 inhibition (IC50)
[2] = in vitro; details: African green monkey
[3] = tested on: IL-5 expression in Th2 cells; assay: Inhibition of IL-5 expression in Th2 cells (ELISA); assay type: cell-based, Balb/C mice; details: Splenocyte, read-out: Inhibitory ability against IL-5 expression (%)
Procedure: Specifically, after spleens were collected from Balb/C mice, CD4+ T cells were isolated therefrom and were seeded at 1-2×10^6 per well into a 48-well tissue culture plate coated with anti-CD3 (5 ug/ml) and anti-CD28 (1 ug/ml). At this time, the culture medium was incubated with IL-2 (20 ng/ml), IL-4 (100 ng/ml), anti-IFNγ (10 ug/ml), anti-IL12 (10 ug/ml), and a derivative of 1 nM for two days, transferred to a new tissue culture plate, and further cultured for three days to induce differentiation into Th2 cells. After replacing with a new medium containing anti-IFNγ (10 ug/ml), anti-IL12 (10 ug/ml) and a derivative of 1 nM, polarization of Th2 cells was induced using PMA and A23187. After two days of culture, the cells were centrifuged and the culture medium was taken to perform IL-5 ELISA. IL-5 ELISA was performed according to the test method of the kit manufacturer.

[4] = Severe acute respiratory syndrome coronavirus 2, Vero cells, 24 hours infection
[5] = Th2 cells from mouse splenocytes, compound 1 nM

SMILES	SI (Selectivity Index, CC50/IC50) [1]	pIC50 [1, 4]	CC50 [2]	inhibition at 0.001 µM [3, 5]	pIC50 ([1]; Severe acute respiratory syndrome coronavirus 2, Vero, 24 h)	inhibition at 0.001 µM ([3]; Mus musculus)
COc1cc2cc3c(c(-c4cnc(Nc5ccc(C)c(C)c5)nc4)c2cc1OC)C(=O)OC3 [Example 14, 9-(2-((3,4-dimethylphenyl)amino)pyrimidin-5-yl)-6,7-dimethoxynaphtho[2,3-c]furan-1(3H)-one]	3.31	4.82	> 50 µM	58.9%		
COc1cc2cc3c(c(-c4cnc(N[C@H]5CC[C@H](O)CC5)nc4)c2cc1OC)C(=O)OC3 [Example 47, 9-(2-(((1r,4r)-4-hydroxycyclohexyl)amino)pyrimidin-5-yl)-6,7-dimethoxynaptho[2,3-c]furan-1(3H)-one]	1.00	< 4.30	> 50 µM	61%		
COc1cc2cc3c(c(-c4cnc(NCCCn5ccnc5)nc4)c2cc1OC)C(=O)OC3 [Example 16, 9-(2-((3-(1H-imidazol-1-yl)propyl)amino)pyrimidin-5-yl)-6,7-dimethoxynaphtho[2,3-c]furan-1(3H)-one]	1.6	4.51	> 50 µM	70.8%		
CCCCCCOCCN(CCCCCC)c1ncc(-c2c3c(cc4cc(OC)c(OC)cc24)COC3=O)cn1 [Example 48, 9-(2-(hexyl(2-(hexyloxy)ethyl)amino)pyrimidin-5-yl)-6,7-dimethoxynaphtho[2,3-c]furan-1(3H)-one]	2.55	4.71	> 50 µM	58.1%		
COc1cc2cc3c(c(-c4cnc(Oc5ccc6c(c5)OCO6)nc4)c2cc1OC)C(=O)OC3 [Example 20, 9-(2-(benzo[d][1,3]dioxol-5-yloxy)pyrimidin-5-yl)-6,7-dimethoxynaphtho[2,3-c]furan-1(3H)-one]	1.00	< 4.30	> 50 µM	40.8%		
COc1cc2cc3c(c(-c4cnc(N5CCC[C@H]5C(=O)N5C[C@@H](C)O[C@@H](C)C5)nc4)c2cc1OC)C(=O)OC3 [Example 24, 9-(2-((S)-2-((2S,6R)-2,6-dimethylmorpholin-4-carbonyl)pyrrolidin-1-yl)pyrimidin-5-yl)-6,7-dimethoxynaphtho[2,3-c]furan-1(3H)-one]	1.00	< 4.30	> 50 µM	72.3%		
COc1cc2cc3c(c(-c4cnc(N5CCC[C@H]5C(=O)NCc5ccc(C)o5)nc4)c2cc1OC)C(=O)OC3 [Example 41, (S)-1-(5-(6,7-dimethoxy-3-oxo-1,3-dihydronaphtho[2,3-c]furan-4-yl)pyrimidin-2-yl)-N-((5-methylfuran-2-yl)methyl)pyrrolidin-2-carboxamide]	2.41	4.82	> 50 µM	66%		
COc1cc2cc3c(c(-c4cnc(N[C@H]5CCc6c(cccc6OC)C5)nc4)c2cc1OC)C(=O)OC3 [Example 22, (S)-6,7-dimethoxy-9-(2-((5-methoxy-1,2,3,4-tetrahydronaphthalen-2-yl)amino)pyrimidin-5-yl)naphtho[2,3-c]furan-1(3H)-one]	10.64	5.33	> 50 µM	59.9%		
COc1cc2cc3c(c(-c4cnc(OCCN5CCOCC5)nc4)c2cc1OC)C(=O)OC3 [Example 13, 6,7-dimethoxy-9-(2-(2-morpholinoethoxy)pyrimidin-5-yl)naphtho[2,3-c]furan-1(3H)-one]	1.00	< 4.30	> 50 µM	67.7%		
COc1cc2cc3c(c(-c4ccc5nccnc5c4)c2cc1OC)C(=O)OC3 [Example 40, 6,7-dimethoxy-9-(quinoxalin-6-yl)naphtho[2,3-c]furan-1(3H)-one]	76.71	6.19	> 50 µM	65.1%		
CCOC(=O)C1CCCN(c2ncc(-c3c4c(cc5cc(OC)c(OC)cc35)COC4=O)cn2)C1 (centres unmarked) [Example 15, Ethyl 1-(5-(6,7-dimethoxy-3-oxo-1,3-dihydronaphtho[2,3-c]furan-4-yl)pyrimidin-2-yl) piperidin-3-carboxylate]	11.37	5.36	> 50 µM	82.9%		
COc1cc2cc3c(c(-c4cnc5ccccc5c4)c2cc1OC)C(=O)OC3 [Example 46, 6,7-dimethoxy-9-(quinolin-3-yl)naphtho[2,3-c]furan-1(3H)-one]	512.00	7.00	> 50 µM	50.4%		
CCC(C)Oc1ncc(-c2c3c(cc4cc(OC)c(OC)cc24)COC3=O)cn1 (centres unmarked) [Example 25, 9-(2-(sec-butoxy)pyrimidin-5-yl)-6,7-dimethoxynaphtho[2,3-c]furan-1(3H)-one]	1.00	< 4.30	> 50 µM	56.8%		
CCCOCCNc1ncc(-c2c3c(cc4cc(OC)c(OC)cc24)COC3=O)cn1 [Example 37, 6,7-dimethoxy-9-(2-((2-propoxyethyl)amino)pyrimidin-5-yl)naphtho[2,3-c]furan-1(3H)-one]	1.00	< 4.30	> 50 µM	56%		
COc1cc2cc3c(c(-c4cnc(NCc5ccc(C)o5)nc4)c2cc1OC)C(=O)OC3 [Example 50, 6,7-dimethoxy-9-(2-(((5-methylfuran-2-yl)methyl)amino)pyrimidin-5-yl)naphtho[2,3-c]furan-1(3H)-one]	5.27	5.02	> 50 µM	61.5%		
COc1cc2cc3c(c(-c4ccc5oc6ccccc6c5c4)c2cc1OC)C(=O)OC3 [Example 43, 9-(dibenzo[b,d]furan-2-yl)-6,7-dimethoxynaphtho[2,3-c]furan-1(3H)-one]	1.00	< 4.30	> 50 µM	65.9%		
CCOC(=O)[C@@H]1CCCN1c1ncc(-c2c3c(cc4cc(OC)c(OC)cc24)COC3=O)cn1 [Example 19, (S)ethyl 1-(5-(6,7-dimethoxy-3-oxo-1,3-dihydronaphtho[2,3-c]furan-4-yl)pyrimidin-2-yl)pyrrolidin-2-carboxylate]	1.60	4.50	> 50 µM	92.3%		
COc1cc2cc3c(c(-c4cnc(N(C)C(C)C)nc4)c2cc1OC)C(=O)OC3 [Example 23, 9-(2-(isopropyl(methyl)amino)pyrimidin-5-yl)-6,7-dimethoxynaphtho[2,3-c]furan-1(3H)-one]	61.34	7.10	> 50 µM	68.2%		
COc1cc2cc3c(c(-c4cnc(O[C@H]5CN6CCC5CC6)nc4)c2cc1OC)C(=O)OC3 [Example 17, (R)-6,7-dimethoxy-9-(2-(quinuclidin-3-yloxy)pyrimidin-5-yl)naphtho[2,3-c]furan-1(3H)-one]	1.59		> 50 µM		4.50	55.2%
COCCN(C)c1ncc(-c2c3c(cc4cc(OC)c(OC)cc24)COC3=O)cn1 [Example 18, 6,7-dimethoxy-9-(2-((2-methoxyethyl)(methyl)amino)pyrimidin-5-yl)naphtho[2,3-c]furan-1(3H)-one]	99.07	6.30	> 50 µM	72.3%		

— patent US20240368104A1, “Novel Dialkoxynaphtho[2,3-C]Furan-1(3H)-One Derivatives and Pharmaceutical Composition For Preventing or Treating Respiratory Disease or SARS-COV-2 Infection Disease, Comprising Same” (priority 2021, published 2024)
